Source: PubChem BioAssay (NCI)
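Dose response: 5 concentrations. Exposure: 48 h. Format: 96-well plates. Endpoint: linear interpolation; highest concentration if not reached. At the TGI there is no net growth.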

How the values were obtained:
Test in all cases: NCI-60 cell line screen, 48 h
COLO 205 colon = tested on: COLO 205 colon
MDA-MB-435 = tested on: MDA-MB-435
MOLT-4 leukemia = tested on: MOLT-4 leukemia
NCI-H460 lung = tested on: NCI-H460 lung
OVCAR-4 ovarian = tested on: OVCAR-4 ovarian
OVCAR-8 ovarian = tested on: OVCAR-8 ovarian
SK-OV-3 ovarian = tested on: SK-OV-3 ovarian
SNB-19 CNS = tested on: SNB-19 CNS
SR leukemia = tested on: SR leukemia
UACC-62 melanoma = tested on: UACC-62 melanoma

SMILES	TGI (COLO 205 colon) [µM]	TGI (MDA-MB-435) [µM]	TGI (MOLT-4 leukemia) [µM]	TGI (NCI-H460 lung) [µM]	TGI (OVCAR-4 ovarian) [µM]	TGI (OVCAR-8 ovarian) [µM]	TGI (SK-OV-3 ovarian) [µM]	TGI (SNB-19 CNS) [µM]	TGI (SR leukemia) [µM]	TGI (UACC-62 melanoma) [µM]
Oc1ccc(-c2cn3cc(C(F)(F)F)ccc3n2)cc1	> 100	> 100	> 100	> 100	> 100	> 100	> 100	> 100	> 100	> 100
COC(=O)[C@@H]1Cc2cc(O)c(O)cc2C2(CCN(C)CC2)O1	> 10	> 10	> 10	> 10	> 10	> 10	> 10	> 10	> 10	> 10
CC(=O)O[C@@H]1O[Si](C(C)(C)C)(C(C)(C)C)[C@H](C)[C@H]1C	> 100	> 100	65.7		> 100	> 100	> 100	> 100	> 100	> 100
CN1C(=O)C23CCCCC2CC1(c1ccccc1)S3 (configuration not stated)	> 100	> 100	> 100		> 100	> 100	> 100	> 100	> 100	> 100
CCOC(=O)NC(=S)c1ccc(O)c2ccccc12	> 100	> 100	> 100	> 100	> 100	> 100	> 100	> 100	> 100	> 100
COc1ccc(/C=C2/CCS(=O)(=O)c3ccc(C)cc3C2=O)cc1OC	28.4	71.6	49.6	25.8	66.9	48.1	> 100	33.3	58.1	22.7
CCN(CC)COC(=S)S	> 100	> 100	69	> 100	> 100	> 100	> 100	> 100	25.9	> 100
N#Cc1c(N)c(C#N)c2c(c1-c1ccc(Cl)cc1)COc1ccccc1-2	> 100	99.4	25	> 100	30		36.9	30.6	26.3	> 100
COc1ccc2c(-c3ccc(O)cc3)c(Oc3ccc(Cl)cc3)c(=O)oc2c1	> 36.5	25.7	> 29.9	19.8	25.4	> 48.8	44.9	24.2	> 28.5	18.6
NC(=O)C(Nc1ccc(Cl)cc1)c1cc2cc(Br)ccc2nc1Cl (configuration not stated)	> 50	> 50	> 50	> 50	> 50	> 50	> 50	> 50	> 50	> 50
CCN(CC)C(=S)SS(=O)(=O)c1ccccc1[N+](=O)[O-]	> 100	53.9	26	> 100	> 83.3	> 56.9	> 100	> 92.8	> 42.6	> 100
CC(NC(NC(C)C12CC3CC(CC(C3)C1)C2)=C(C(Cl)=C(Cl)Cl)[N+](=O)[O-])C12CC3CC(CC(C3)C1)C2 (configuration not stated)	22.6	> 100	> 100	21.8	> 100	7.41	> 100	> 100	> 100	> 100
N#CCCN(CCC#N)c1ccc(C(N=Nc2ccc(Cl)cc2)=Nc2ccc(F)cc2)cc1	> 100	> 100	> 100	> 100	> 100	> 100	> 100	> 100	> 100	> 100
O=C1C(Cl)C(c2cc3cc(Br)ccc3nc2Cl)N1c1c(Cl)cccc1Cl (configuration not stated)	> 25	> 25	11.4	> 25	11.4	> 25	> 25	> 25	10.7	> 25
OC(c1ccccc1)C(F)(F)c1nc2ccccc2o1 (configuration not stated)	> 100	> 100	> 100	> 100	> 100	> 100	> 100	> 100	> 100	> 100
O=C1CN(c2ccc(Cl)cc2)C(=O)CN1NCNN1CC(=O)N(c2ccc(Cl)cc2)CC1=O	> 100	> 100	> 100	> 100	> 100	> 100	> 100	> 100	> 100	> 100

SMILES	TGI (COLO 205 colon) [µM]	TGI (MDA-MB-435) [µM]	TGI (MOLT-4 leukemia) [µM]	TGI (NCI-H460 lung) [µM]	TGI (OVCAR-4 ovarian) [µM]	TGI (OVCAR-8 ovarian) [µM]	TGI (SK-OV-3 ovarian) [µM]	TGI (SNB-19 CNS) [µM]	TGI (SR leukemia) [µM]	TGI (UACC-62 melanoma) [µM]
CN(C)c1ccc(C2ON=C(c3ccccc3)N2C23CC4CC(CC(C4)C2)C3)cc1 (configuration not stated)	> 10	> 10	> 10	> 10	> 10	> 10	> 10	> 10	> 10	> 10
CCCOC1OC(CS(=O)(=O)O)C(O)C(O)C1O (configuration not stated)	> 100	> 100	> 100	> 100	> 100	> 100	> 100	> 100	> 100	> 100
Cc1ccc(-c2cc(-c3c(C)nn(C)c(=O)c3N)[nH]n2)cc1	> 100	> 100	> 100	> 100	> 100	> 100	> 100	> 100	> 100	> 100
CC1(C)CN=C(Nc2ccc(F)c(F)c2)S1	> 100	> 100	> 100		> 100	> 100	> 100	> 100	> 100	> 100
O=C(Nn1cnn2c(=O)c3ccccc3nc2c1=O)c1ccccc1	> 100	> 100		> 100	> 100	> 100	> 100	> 100	> 100	> 100
CN(C)Cc1cc(N=Nc2ccc(Cl)cc2)ccc1O	13.8	30.3	31.8	26.7	45.7	30.6	33.8	34.1	39.8	30.1
CC1OC(O[C@H]2CC[C@]3(C=O)[C@H]4CC[C@]5(C)[C@H](C6=CC(=O)OC6)CC[C@]5(O)[C@@H]4C=C[C@]3(O)C2)CC(O)C1O (some centres not stated)	1.91	0.701	0.3	0.423	0.838	0.754	1.02	3.25	0.682	0.807
COC(=O)c1c(C(=O)OC)c2c3ccccc3n(C)c2c2c1c1ccccc1n2C	> 100	> 100	> 100	> 100	> 100	> 100	> 100	83.3	> 100	> 100
COc1ccc(N2C(=O)/C(=C\c3cccc(Oc4ccccc4)c3)SC2c2ccccc2)cc1 (configuration not stated)	> 100	> 100	74.1	> 100	> 100	> 100	> 100	> 100	59.2	> 100
COCCOCCOCCOc1ccc(C(C#N)N(CCc2ccccc2)C(=O)c2cc(C(=O)N(CCc3ccccc3)C(C#N)c3ccc(OCCOCCOCCOC)cc3)cc(C(=O)N(CCc3ccccc3)C(C#N)c3ccc(OCCOCCOCCOC)cc3)c2)cc1 (configuration not stated)	> 100	> 100	> 100	> 100	> 100	> 100	> 100	> 100	> 100	> 100
Oc1cc(CN2COc3ccccc32)c(O)cc1CNC1CCCCC1	31.2	60.1	39.3	32.3	52.2	57.5	> 100	> 100	49.7	55.1
Cn1c(=O)oc2cc(Br)ccc21	> 100	> 100	> 100	> 100	> 100	> 100	> 100	> 100	> 100	> 100
CC(=O)Oc1c2oc3cc(O)c(O)cc3c2c(OC(C)=O)c2oc3cc(O)c(O)cc3c12	33.5	3.81	> 100	32.7	62.3	50.2	59.4	94.2	> 100	40.2
CN(C)C(=O)C1CCN(Cc2c[nH]c3ccccc23)CC1	> 100	> 100	> 100		> 100	> 100	> 100	> 100	> 100	> 100
Nc1c(N2CCCCC2)c(=O)nc2[nH]/c(=C\c3ccccc3)c(=O)n12	> 100	> 100	> 100	> 100	> 100	> 100	> 100	> 100	> 100	
COc1ccc(CNC(=O)[C@H](Cc2ccc(O)cn2)NC(C)=O)cc1	> 100	> 100	> 100	> 100	> 100		> 100	> 100	> 100	> 100
